Assay results from patent US20070128217A1 (priority 2003, published 2007).

Tests used:
[1] = test system: recombinant human anti-SARS-CoV antibody 03-018; format: binding; set-up: Binding of antibody 03-018 to linear peptides of the N protein of SARS-CoV Urbani / Binding of antibody 03-018 to looped/cyclic peptides of the N protein of SARS-CoV Urbani: unit not given here
[2] = test system: control sera (pooled serum of ten healthy LUMC hospital workers; commercial negative donor pooled serum from the Dutch bloodbank); format: binding, human; set-up: Binding of Control serum LUMC to linear peptides / Binding of Control serum Blood-bank to linear peptides / Binding of Control serum LUMC to looped peptides / Binding of Control Serum Blood-Bank to Looped peptides / Binding of Control serum LUMC to linear peptides of the protein M of SARS-CoV Urbani / Binding of Control serum Blood-bank to linear peptides of the protein M of SARS-CoV Urbani / Binding of Control serum LUMC to looped peptides of the protein M of SARS-CoV Urbani / Binding of Control Serum Blood-Bank to Looped peptides of the protein M of SARS-CoV Urbani: unit not given here
[3] = test system: rabbit serum obtained by immunizing a rabbit with the SARS-CoV strain Frankfurt 1; format: binding; set-up: Binding of a rabbit serum to linear peptides / Binding of a rabbit serum to looped peptides / Rabbit serum linear peptides / Rabbit serum looped peptides / Binding of a rabbit serum to linear peptides of protein N of SARS-CoV Urbani (Rabbit serum linear peptides) / Binding of a rabbit serum to looped/cyclic peptides of protein N of SARS-CoV Urbani (Rabbit serum looped peptides): unit not given here
[4] = test system: antibodies in sera from SARS patients (sera 1a, 1b, 2, 6, 37, 62, London, SARS-yellow, SARS-green); format: binding, human; set-up: Binding of serum 6 to linear peptides of protein X1 of SARS-CoV Urbani / Binding of serum 37 to linear peptides of protein X1 of SARS-CoV Urbani / Binding of serum 6 to looped/cyclic peptide (PEPSCAN-ELISA) / Binding of serum 37 to looped/cyclic peptide (PEPSCAN-ELISA) / Binding of serum 37 to looped/cyclic peptides of protein X1 of SARS-CoV Urbani / Binding of serum 6 to linear peptides of protein X2 / Binding of serum 37 to linear peptides of protein X2 / Binding of serum 37 to looped/cyclic peptides of protein X2 of SARS-CoV Urbani / Binding of serum 6 to linear peptides of protein M of SARS-CoV Urbani / Binding of serum 37 to linear peptides of protein M of SARS-CoV Urbani / Binding of serum 6 to looped/cyclic peptides of protein M of SARS-CoV Urbani / Binding of serum 37 to looped/cyclic peptides of protein M of SARS-CoV Urbani / Binding of serum 6 to linear peptides of protein X3 of SARS-CoV Urbani / Binding of serum 37 to linear peptides of protein X3 of SARS-CoV Urbani / Binding of serum 37 to looped/cyclic peptides of protein X3 of SARS-CoV Urbani / Binding of serum 6 to linear peptides of protein X4 of SARS-CoV Urbani / Binding of serum 37 to linear peptides of protein X4 of SARS-CoV Urbani / Binding of serum 37 to looped/cyclic peptides of protein X4 of SARS-CoV Urbani / Binding of serum 6 to linear peptides of protein X5 of SARS-CoV Urbani / Binding of serum 37 to linear peptides of protein X5 of SARS-CoV Urbani / Binding of serum 37 to looped/cyclic peptides of protein X5 of SARS-CoV Urbani / Binding of serum 6 to linear peptides of protein N of SARS-CoV Urbani / Binding of serum 37 to linear peptides of protein N of SARS-CoV Urbani / Binding of serum 6 to linear peptide (PEPSCAN-ELISA) / Binding of serum 1a to looped/cyclic peptides of protein N of SARS-CoV Urbani / Binding of serum 1b to looped/cyclic peptides of protein N of SARS-CoV Urbani / Binding of serum 2 to looped/cyclic peptides of protein N of SARS-CoV Urbani / Binding of serum 6 to looped/cyclic peptides of protein N of SARS-CoV Urbani / Binding of serum 37 to looped/cyclic peptides of protein N of SARS-CoV Urbani / Binding of serum 62 to looped/cyclic peptides of protein N of SARS-CoV Urbani / Binding of serum London to looped/cyclic peptides of protein N of SARS-CoV Urbani / Binding of serum SARS-green to looped/cyclic peptides of protein N of SARS-CoV Urbani: unit not given here

| Sequence | Binding of antibody 03-018 to linear peptides of the N protein of SARS-CoV Urbani [1] | Binding of antibody 03-018 to looped/cyclic peptides of the N protein of SARS-CoV Urbani [1] | Binding of a rabbit serum to linear peptides of protein N of SARS-CoV Urbani (Rabbit serum linear peptides) [3] | Binding of a rabbit serum to looped/cyclic peptides of protein N of SARS-CoV Urbani (Rabbit serum looped peptides) [3] | Binding of serum 1a to linear peptides of protein N of SARS-CoV Urbani [4] | Binding of serum 1a to looped/cyclic peptides of protein N of SARS-CoV Urbani [4] | Binding of serum 1b to linear peptides of protein N of SARS-CoV Urbani [4] | Binding of serum 1b to looped/cyclic peptides of protein N of SARS-CoV Urbani [4] | Binding of serum 2 to linear peptides of protein N of SARS-CoV Urbani [4] | Binding of serum 2 to looped/cyclic peptides of protein N of SARS-CoV Urbani [4] | Binding of serum 6 to linear peptides of protein N of SARS-CoV Urbani [4] | Binding of serum 6 to looped/cyclic peptides of protein N of SARS-CoV Urbani [4] | Binding of serum 37 to linear peptides of protein N of SARS-CoV Urbani [4] | Binding of serum 37 to looped/cyclic peptides of protein N of SARS-CoV Urbani [4] | Binding of serum 62 to linear peptides of protein N of SARS-CoV Urbani [4] | Binding of serum 62 to looped/cyclic peptides of protein N of SARS-CoV Urbani [4] | Binding of serum London to linear peptides of protein N of SARS-CoV Urbani [4] | Binding of serum London to looped/cyclic peptides of protein N of SARS-CoV Urbani [4] | Binding of serum SARS-green to linear peptides of protein N of SARS-CoV Urbani [4] | Binding of serum SARS-green to looped/cyclic peptides of protein N of SARS-CoV Urbani [4] | other results |
| --- | --- | --- | --- | --- | --- | --- | --- | --- | --- | --- | --- | --- | --- | --- | --- | --- | --- | --- | --- | --- | --- |
| SRIGMEVTPSGTWLT | 0.1 | 0.2 | 0.1 | 0.4 | 0.2 | 0.3 | 0.1 | 0.2 | 0.2 | 0.4 | 0.2 | 0.2 | 0.7 | 0.5 | 0.6 | 0.5 | 0.5 | 0.4 | 0.4 | 0.5 | Control Serum Blood-Bank Looped peptides [2]: 0.6; Control serum Blood-bank linear peptides [2]: 0.8; Control serum LUMC linear peptides [2]: 0.6; Control serum LUMC looped peptides [2]: 0.6; Binding of serum SARS-yellow to linear peptides of protein N of SARS-CoV Urbani [4]: 0.6; Binding of serum SARS-yellow to looped/cyclic peptides of protein N of SARS-CoV Urbani [4]: 0.4 |
| RIGMEVTPSGTWLTY | 0.1 | 0.2 | 0.0 | 0.5 | 0.2 | 0.4 | 0.1 | 0.2 | 0.1 | 0.5 | 0.1 | 0.3 | 0.4 | 0.7 | 0.4 | 0.8 | 0.3 | 0.6 | 0.5 | 0.5 | Control Serum Blood-Bank Looped peptides [2]: 0.8; Control serum Blood-bank linear peptides [2]: 0.5; Control serum LUMC linear peptides [2]: 0.5; Control serum LUMC looped peptides [2]: 0.7; Binding of serum SARS-yellow to linear peptides of protein N of SARS-CoV Urbani [4]: 0.9; Binding of serum SARS-yellow to looped/cyclic peptides of protein N of SARS-CoV Urbani [4]: 0.5 |
| FSRQLQNSMSGASAD | 0.1 | 0.2 | 0.4 | 0.1 | 0.2 | 0.2 | 0.1 | 0.1 | 0.1 | 0.2 | 0.2 | 0.1 | 0.7 | 0.4 | 0.6 | 0.2 | 0.6 | 0.2 | 0.6 | 0.0 | Control Serum Blood-Bank Looped peptides [2]: 0.4; Control serum Blood-bank linear peptides [2]: 0.7; Control serum LUMC linear peptides [2]: 0.6; Control serum LUMC looped peptides [2]: 0.2; Binding of serum SARS-yellow to linear peptides of protein N of SARS-CoV Urbani [4]: 0.4; Binding of serum SARS-yellow to looped/cyclic peptides of protein N of SARS-CoV Urbani [4]: 0.0 |
| ATRRVRGGDGKMKEL | 0.1 | 0.2 | 0.3 | 0.3 | 0.3 | 0.2 | 0.1 | 0.1 | 0.3 | 0.2 | 0.3 | 0.1 | 0.8 | 0.4 | 0.7 | 0.3 | 0.5 | 0.3 | 0.3 | 0.1 | Binding of Control Serum Blood-Bank to Looped peptides [2]: 0.5; Binding of Control serum Blood-bank to linear peptides [2]: 0.7; Binding of Control serum LUMC to linear peptides [2]: 0.7; Binding of Control serum LUMC to looped peptides [2]: 0.5; Binding of serum SARS-yellow to linear peptides of protein N of SARS-CoV Urbani [4]: 0.6; Binding of serum SARS-yellow to looped/cyclic peptides of protein N of SARS-CoV Urbani [4]: 0.4 |
